Reference: patent publication US20220033448A1, “METHODS FOR AGGREGATION OF PROTEINS” (priority 2011, published 2022)
No end group written: not given here.

Tests used:
S. aureus = type: cell-based, Staphylococcus aureus
bacterial cells = experiment: Membrane potential (BacLight kit, DiOC2 red/green fluorescence); type: cell-based; details: 25 μg/ml; after 5 minutes
Ps. aeruginosa ATCC27853 = experiment: MIC, microbroth dilution; details: planktonic, 18 hours
Method: (§2) Bacteria were grown in a shaking incubator at 37° C. and 160rpm in 50 ml BHI , using individual colonies retrieved from a fresh overnight TSA-sheep blood plate. The cultures were grown to a density of approximately 1×10^8cells/ml and then diluted to 5×10^5 cells/ml in CAMHB (Mc Farland 0.5). Each well contained 100p.I (50p.I of peptide containing MHB plus 50 μl inoculum). The final cell density was 1×10^5 to 5×10^5/ml. After addition of the cell suspension, plates were incubated at 37° C. for 18 to 24 hours. The optical density at 590 nm (OD590) of each well was measured after 5 seconds of shaking the plate using Perkin Elmer spectrophotometer (1420 Multilabel Counter Vicotr 3). […] Each well, where no growth was observed, was also plated on TSA-sheep blood agar plates, incubated at 37° C. overnight and visually inspected.

S. haemolyticus = experiment: MIC, microbroth dilution; details: planktonic, 18 hours
Method: as §2

[1] = tested on: Micrococcus luteus ATCC 9341; experiment: MIC, microbroth dilution; details: planktonic, 18 hours
Method: as §2

Candida albicans SC5314 [2] = experiment: C. albicans SC5314 adhesion on 96-well polystyrene plates (XTT reduction assay); type: cell-based; details: 90 min adhesion at 37° C.
Method: In a next step, lower concentrations of peptide F9 (50 μM, 10 μM and 2.5 μM) were also tested. First, we elucidated the effect of peptide F9 during the period of adhesion (90 min at 37° C.). Then, we tested its effect on further biofilm development, by changing the medium with fresh RPMI1640-MOPS, in the absence of peptide for 48 h. Both assays were performed in 96-well polystyrene plates and quantified by the XTT reduction assay (see material and methods section).
(§1) In vitro C. albicans biofilm was studied on three different types of biomaterials, namely flat bottom 96-well polystyrene plate (Greiner Bio-One, Germany), silicone (CS Hyde, USA) and polyurethane triple lumen intravenous catheters (2.4mm diameter) (Arrow International Reading, USA). […] After that, the biofilms were washed twice with 1×PBS and quantified.
The metabolic activity of Candida cells within in vitro biofilms was studied using the XTT reduction assay. This method is based on colorimetric change of a specific substrate—XTT (2,3-bis(2-methoxy-4-nitro-5-sulpho-phenyl)-2H-tetrazolium-5-carboxanilide) (Sigma, USA) which is reduced to XTT formazan by mitochondrial dehydrogenases of metabolic active cells measured by spectrophotometer at 490 nm. […] The intensity of colorimetric change was measured by spectrophotometer (Spectra max Plus 384) at 490 nm. […]

Candida albicans SC5314 [3] = experiment: In vitro mature C. albicans biofilm formation on polystyrene (XTT reduction assay); type: cell-based; details: 250 μM, 50 μM and 10 μM; peptide during adhesion only or during whole biofilm development; p<0.001
Method: The initial screening and search for optimal Als3 candidate interferors was based on the C. albicans SC5314 adhesion assay on 96-well polystyrene plates upon administration of all the peptides at three different concentrations (250 μM, 50 μM and 10 μM). Based on the results obtained with this adhesion assay, we also tested the effect of peptides on mature biofilm development. The final election of the most optimal candidate interferor peptides was based on the results showing reduction in adhesion and mature biofilm formation caused by the lowest concentration of the peptide tested (10 μM or 2.5 μM).
In a next step, lower concentrations of peptide F9 (50 μM, 10 μM and 2.5 μM) were also tested. […] Both assays were performed in 96-well polystyrene plates and quantified by the XTT reduction assay (see material and methods section).
as §1
The metabolic activity of Candida cells within in vitro biofilms was studied using the XTT reduction assay. […] The intensity of colorimetric change was measured by spectrophotometer (Spectra max Plus 384) at 490 nm. […]

Candida albicans SC5314 [4] = experiment: C. albicans adhesion on polyurethane catheters (CFU counting); type: cell-based; details: 50 μM; adhesion 90 min at 37° C.; control 3.06 ±0.39
Method: In vitro C. albicans biofilm was studied on three different types of biomaterials, namely flat bottom 96-well polystyrene plate (Greiner Bio-One, Germany), silicone (CS Hyde, USA) and polyurethane triple lumen intravenous catheters (2.4mm diameter) (Arrow International Reading, USA). Prior the biofilm set up, silicone was cut into small square pieces (1 cm×1 cm) and polyurethane into 1 cm pieces. Silicone or polyurethane devices were incubated in 99% FBS (F7524, Sigma) overnight at 37° C. Cells were washed and resuspended in 1 x phosphate buffered saline (PBS), pH 7.4. Candida suspension of 1×10^7 cells/ml or 5.10^4 cells/ml was prepared in RPMI1640-MOPS medium, Ssuccinate, pH 6.5 or in YNB medium, 4% D-glucose. In total, 1 ml of the cell suspension was added to the silicone discs or polyurethane catheters placed in 24 well plate and 100 μl of cell suspension was inoculated into 96-well polystyrene plate. The attachment of the cells to a substrate was achieved by incubation at 37° C., for 90 min under static conditions (period of adhesion). […] After that, the biofilms were washed twice with 1×PBS and quantified.
The amount of fungal biofilm biomass formed inside the catheter lumen of in vitro and in vivo explanted catheters was determined by colony forming units (CFU). […] CFUs were counted after two days at 37° C.

Candida albicans SC5314 [5] = experiment: Invasion of C. albicans SC5314 into epithelial cell line TR-146; type: cell-based; details: invasion 3 h
Method: As discussed herein before, C. albicans Als3 also plays a role in adherence and invasion to epithelial and endothelial cells. […] Here we investigated the effect of external application of interferor peptide F9 on C. albicans SC5314 adherence and invasion to epithelial cells. Thereto, Candida cells were incubated together with the human cells (epithelial cell line TR-146) in the presence of peptide F9 during adhesion (1 h) or invasion (3 h). The amount of adhered and internalized cells was determined by counting using epifluorescence.
The monolayers of TR-146 cell lines were infected with Candida cells as previously described in 6.2.15. After 3 h incubation period of monolayers with Candida cells at 37° C., 5% CO2, the medium above the epithelial cells was aspirated and the monolayers were rinsed three times with 1× PBS to remove fungal cells which were not associated with epithelial cells. Next, the epithelial cells were fixed with 4% Histofix (Roth) for 20 min at 37° C. All fungal cells remaining adherent to the surface were stained for 1 h with a rabbit anti-C. albicans polyclonal antibody (Acris Antibodies, Germany) (dilution 1:2000) and counterstained with a secondary anti-rabbit IgG conjugated with Alexa Fluor 488 (Invitrogen) (dilution 1:5000). After extensive rinsing with 1× PBS, the cells were permeabilized in 0.5% Triton X-100 in water for 5 min. Further, adherent and invading parts of fungal cells within epithelial cells were stained with calcofluor white (dilution 1:100) for 15 min and washed three times with water, for 10 min at 30° C., 180 rpm. Coverslips were mounted inverted onto glass slides and the stained cells were visualized with epifluorescence using a filter set to detect calcofluor white (filter for DAPI) and Alexa Fluor 488 (Leica DFC350 FX, Mannheim, Germany). The percentage of invading C. albicans cells was determined by dividing the number of internalized cells by the total number of adherent cells. At least 100 fungal cells were counted on each coverslip.

Row | Sequence | onset of resistance compared with common antibiotics (S. aureus; S. aureus ATCC, broth microdilution, 4 duplicates) | fold elevation of the MIC (S. aureus; S. aureus clinical strain MRSA 204, passaged at half the MIC over 15 days) [fold] | membrane potential (MP) change (bacterial cells) | MIC (Ps. aeruginosa ATCC27853) | MIC (S. haemolyticus) | MIC [1] | adhesion of C. albicans SC5314 on polystyrene (Candida albicans SC5314 [2]; 2.5 μM peptide) | adhesion of C. albicans SC5314 on polystyrene (Candida albicans SC5314 [2]; 50 μM and 10 μM peptide) | biofilm formation (metabolic activity compared to control) (Candida albicans SC5314 [3]) | attachment to polyurethane devices (Candida albicans SC5314 [4]) | effect on invasion of epithelial cells (Candida albicans SC5314 [5]; 2.5 μM) | decrease of invasion of epithelial cells (Candida albicans SC5314 [5]; 10 μM) [%] | decrease of invasion of epithelial cells (Candida albicans SC5314 [5]; 50 μM) [%]
1 | RILLGLIRRGSRILLGLIRR [C30] | much slower onset of resistance than Ampicillin | 2 | full depolarization of the MP | Ps. aeruginosa ATCC27853: >100 μg/ml | S. haemolyticus: 1.5 μg/ml | Micrococcus luteus ATCC 9341: 3 μg/ml |  |  |  |  |  |  | 
2 | RKLLFNLGSRNGIVIVATTR [F9] |  |  |  |  |  |  | dramatically decreased adhesion properties of Candida cells | almost completely abolished Candida attachment | significant reduction in biofilm formation | 2.18 ±0.12 logio CFU/catheter fragment | did not have any effect on invasion | 15 | 34
